Source: the NIST ThermoML archive (doi:10.1021/je400821q)
± gives the expanded uncertainty stated by the source.

Test: osmotic coefficient (dimensionless); mn = molality of the nth substance listed, in mol/kg
Conditions: 308.15 K, Liquid, Osmomat K-7000

SMILES: CCCC[N+](CCCC)(CCCC)CCCC.[Br-] [tetrabutylammonium bromide] + O
- osmotic coefficient (m1 = 0.00627): 0.9763 ± 0.0013
- osmotic coefficient (m1 = 0.0125): 0.9517 ± 0.002
- osmotic coefficient (m1 = 0.02562): 0.9279 ± 0.0028
- osmotic coefficient (m1 = 0.03159): 0.9191 ± 0.0031
- osmotic coefficient (m1 = 0.03774): 0.9126 ± 0.0034
- osmotic coefficient (m1 = 0.04597): 0.9006 ± 0.0039
- osmotic coefficient (m1 = 0.06502): 0.8805 ± 0.0046
- osmotic coefficient (m1 = 0.07496): 0.8725 ± 0.0049
- osmotic coefficient (m1 = 0.113): 0.8403 ± 0.0062
- osmotic coefficient (m1 = 0.1459): 0.8228 ± 0.0069
- osmotic coefficient (m1 = 0.1775): 0.8131 ± 0.0072
- osmotic coefficient (m1 = 0.2126): 0.8046 ± 0.0076
- osmotic coefficient (m1 = 0.2558): 0.794 ± 0.008
- osmotic coefficient (m1 = 0.3305): 0.785 ± 0.0083

SMILES: CC[N+](CC)(CC)CC.[Br-] [tetraethylammonium bromide] + O
- osmotic coefficient (m1 = 0.00966): 0.9933 ± 0.001
- osmotic coefficient (m1 = 0.01943): 0.9737 ± 0.0014
- osmotic coefficient (m1 = 0.03868): 0.9492 ± 0.0021
- osmotic coefficient (m1 = 0.0491): 0.9327 ± 0.0026
- osmotic coefficient (m1 = 0.05837): 0.9256 ± 0.0029
- osmotic coefficient (m1 = 0.07077): 0.916 ± 0.0033
- osmotic coefficient (m1 = 0.09678): 0.8994 ± 0.0039
- osmotic coefficient (m1 = 0.1197): 0.8851 ± 0.0045
- osmotic coefficient (m1 = 0.1561): 0.869 ± 0.0051
- osmotic coefficient (m1 = 0.2146): 0.85 ± 0.0058
- osmotic coefficient (m1 = 0.2799): 0.8376 ± 0.0063
- osmotic coefficient (m1 = 0.3398): 0.8275 ± 0.0067

SMILES: C[N+](C)(C)C.[Br-] [tetramethylammonium bromide] + O
- osmotic coefficient (m1 = 0.01285): 0.9931 ± 0.001
- osmotic coefficient (m1 = 0.02557): 0.9742 ± 0.0014
- osmotic coefficient (m1 = 0.03787): 0.9583 ± 0.0018
- osmotic coefficient (m1 = 0.0549): 0.948 ± 0.0021
- osmotic coefficient (m1 = 0.06504): 0.94 ± 0.0023
- osmotic coefficient (m1 = 0.07726): 0.9311 ± 0.0027
- osmotic coefficient (m1 = 0.0956): 0.9195 ± 0.0031
- osmotic coefficient (m1 = 0.1326): 0.8936 ± 0.0041
- osmotic coefficient (m1 = 0.1678): 0.8796 ± 0.0047
- osmotic coefficient (m1 = 0.203): 0.8696 ± 0.0051
- osmotic coefficient (m1 = 0.2383): 0.8623 ± 0.0053
- osmotic coefficient (m1 = 0.3083): 0.8489 ± 0.0059

SMILES: C[N+](C)(C)C.[Cl-] [tetramethylammonium chloride] + O
- osmotic coefficient (m1 = 0.01861): 0.9937 ± 0.001
- osmotic coefficient (m1 = 0.03679): 0.9747 ± 0.0013
- osmotic coefficient (m1 = 0.05507): 0.958 ± 0.0018
- osmotic coefficient (m1 = 0.07403): 0.9487 ± 0.0021
- osmotic coefficient (m1 = 0.09359): 0.9393 ± 0.0024
- osmotic coefficient (m1 = 0.1112): 0.9297 ± 0.0027
- osmotic coefficient (m1 = 0.1397): 0.9173 ± 0.0032
- osmotic coefficient (m1 = 0.1877): 0.8997 ± 0.0039
- osmotic coefficient (m1 = 0.2352): 0.8878 ± 0.0043
- osmotic coefficient (m1 = 0.284): 0.8757 ± 0.0048
- osmotic coefficient (m1 = 0.333): 0.8675 ± 0.0051

SMILES: C[N+](C)(C)C.[I-] [tetramethylammonium iodide] + O
- osmotic coefficient (m1 = 0.01012): 0.9766 ± 0.0013
- osmotic coefficient (m1 = 0.02006): 0.9573 ± 0.0018
- osmotic coefficient (m1 = 0.0301): 0.9365 ± 0.0025
- osmotic coefficient (m1 = 0.04063): 0.9245 ± 0.0029
- osmotic coefficient (m1 = 0.04966): 0.9108 ± 0.0035
- osmotic coefficient (m1 = 0.05912): 0.8995 ± 0.0039
- osmotic coefficient (m1 = 0.07116): 0.883 ± 0.0045
- osmotic coefficient (m1 = 0.1026): 0.8569 ± 0.0055
- osmotic coefficient (m1 = 0.1286): 0.8396 ± 0.0062
- osmotic coefficient (m1 = 0.1527): 0.8277 ± 0.0067
- osmotic coefficient (m1 = 0.1802): 0.8188 ± 0.007
